Tests used:
individuals [1] = assay: Measurement of brachial diastolic and systolic blood pressure on right upper arm; assay type: in vivo, human
Description: (§1) The treatment was administered by having an individual insert the left thumb into the open-ended delivery outlet of a device disclosed herein creating a seal. The digit will be “bathed” for five minutes with a vapor including supersaturated dissolved molecular carbon dioxide from a canister providing pure, medical-grade carbon dioxide. Nine individuals were examined.
To conduct this study, individuals from the study described in Example 1 had there blood pressure taken. A measurement of both brachial diastolic blood pressure and systolic blood pressure was performed on the individual's right upper arm at six time points 1) 5 minutes before treatment (pre-treatment); 2) 5 minutes post-treatment; 3) 30 minutes post-treatment; 4) 60 minutes post-treatment; 5) 120 minutes post-treatment; and 6) 240 minutes post-treatment.

individuals [2] = assay: Measurement of blood flow: Skin Perfusion Pressure (SensiLase System) on right toe, capillary blood flow change; assay type: in vivo, human
Description: as §1
Tissue perfusion in distal arteries was accessed using a SensiLase System (a FDA-cleared device) and measuring Skin Perfusion Pressure (SPP) and Pulse Volume Recording (PVR). SPP is a pressure measurement in mmHg that assess local blood perfusion in capillaries using a laser Doppler to measure reactive hyperemia, which reflects microcirculation for distal arterial blood flow. PVR is a measurement of plethysmography to assess changes in arterial blood volume. A change in capillary blood flow (CBF) is calculated by determining the change in SPP values over time. For this study, the CBF values of all post-treatment measurements were calculated by dividing the post-treatment SPP value by the pre-treatment SPP value. A measurement of SPP was performed on the individual's right toe at six time points 1) 5 minutes before treatment (pre-treatment); 2) 5 minutes post-treatment; 3) 30 minutes post-treatment; 4) 60 minutes post-treatment; 5) 120 minutes post-treatment; and 6) 240 minutes post-treatment.

[3] = nine individuals, 5 to 240 min post-treatment
[4] = over the course of the entire 240 minute study

O=C=O [molecular carbon dioxide, carbon dioxide]
blood pressure (individuals [1]; [3]): decreased blood pressure in all individuals examined at some point during the time period measured
diastolic and systolic blood pressure (individuals [1]; [4]): Seven of the nine individuals studied showed decreased diastolic and systolic blood pressure
blood flow (individuals [2]; [3]): increases blood flow in all individuals examined at some point during the time period measured
sustained increases in capillary blood flow (individuals [2]; [4]): six of the nine patients showed sustained increases in capillary blood flow

From patent US20140163456A1, “METHOD OF PRODUCING SUBSTANCES WITH SUPERSATURATED GAS, TRANSDERMAL DELIVERY DEVICE THEREOF, AND USES THEREOF” (INVISIDERM, LLC, priority 2011, published 2014)
